Earlier results as cited in patent US20140011742A1, “Bioactive Peptides and Proteins Containing Bioactive Peptides, their Uses and Processes for Making the Same” (MCGILL UNIVERSITY, priority 2010, published 2014).

Conditions: compared with β-Lg hydrolysates; as previously reported

O=C1O[C@H]([C@@H](O)CO)C(O)=C1O [Vitamin C]
radical scavenging activity: comparable radical scavenging activity
